Test results published in the supplement of paper PMC4862054.

System: HCC1937
Assay: normalised response (% of control), CellTox Green; higher = less cell death (100 = DMSO, 0 = benzethonium chloride kill control)
Details: incubation time: 72 h
Summary of the method: (§1)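 Each entry is the normalised signal at a single concentration within a series. The series comprised 5 concentrations in 10-fold steps over a compound-specific 10,000-fold range, placed in 384-well plates into which breast cancer cell lines were seeded as 20 µl suspension and incubated 72 h. CellTox Green (485/520 nm) fluorescence and then CellTiter-Glo luminescence were read, with signals normalised per plate to 0.1 % DMSO (100) and a positive kill control (0).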

| Compound | normalised response [%] |
| --- | --- |
| CN(c1ccccc1CNc1nc(Nc2ccc3c(c2)CC(=O)N3)ncc1C(F)(F)F)S(C)(=O)=O (100 nM) | 83.4 |
| Nc1nccc(-c2c(-c3ccc(F)cc3)ncn2C2CCCCC2)n1 (100 nM) | 78.4 |
| COC1=C2C[C@@H](C)C[C@H](OC)[C@H](O)[C@@H](C)/C=C(\C)[C@H](OC(N)=O)[C@@H](OC)/C=C\C=C(/C)C(=O)NC(=CC1=O)C2=O [Geldanamycin] (100 nM) | 111 |
| CS(=O)(=O)CCNCc1ccc(-c2ccc3ncnc(Nc4ccc(OCc5cccc(F)c5)c(Cl)c4)c3c2)o1 [Lapatinib] (10 nM) | 90.5 |
| Cc1cc(C(C)Nc2ccccc2)c2nc(N3CCOCC3)cc(=O)n2c1 (stereo not given) [TGX-221] (100 nM) | 80.5 |
| CCS(=O)(=O)c1cccc(-c2cc(C(=O)NC3CCN(C)CC3)c(C)c3[nH]c4ncc(C)cc4c23)c1 [TAK-901] (10 nM) | 120 |
| O=c1[nH]c(=O)n([C@H]2C[C@H](O)[C@@H](CO)O2)cc1F [Floxuridine] (100 nM) | 51.1 |

System: HDQ-P1
Assay: as above
Details: incubation time: 72 h
Summary of the method: as §1

| Compound | normalised response [%] |
| --- | --- |
| CC(C)(C)c1cc(NC(=O)Nc2ccc(-c3cn4c(n3)sc3cc(OCCN5CCOCC5)ccc34)cc2)no1 [Quizartinib] (10 nM) | 92.7 |
| Nc1nccc(-c2c(-c3ccc(F)cc3)ncn2C2CCCCC2)n1 (100 nM) | 104 |
| COC1=C2C[C@@H](C)C[C@H](OC)[C@H](O)[C@@H](C)/C=C(\C)[C@H](OC(N)=O)[C@@H](OC)/C=C\C=C(/C)C(=O)NC(=CC1=O)C2=O [Geldanamycin] (100 nM) | 106 |
| Cn1c(=O)c(F)c(Nc2ccc(I)cc2F)c2c(=O)n(C[C@@H](O)CO)cnc21 [TAK-733] (10 nM) | -40.4 |
| CS(=O)(=O)CCNCc1ccc(-c2ccc3ncnc(Nc4ccc(OCc5cccc(F)c5)c(Cl)c4)c3c2)o1 [Lapatinib] (10 nM) | 82.1 |
| CCS(=O)(=O)c1cccc(-c2cc(C(=O)NC3CCN(C)CC3)c(C)c3[nH]c4ncc(C)cc4c23)c1 [TAK-901] (10 nM) | 108 |

System: Hs578T
Assay: as above
Details: incubation time: 72 h
Summary of the method: as §1

| Compound | normalised response [%] |
| --- | --- |
| CC(C)(C)c1cc(NC(=O)Nc2ccc(-c3cn4c(n3)sc3cc(OCCN5CCOCC5)ccc34)cc2)no1 [Quizartinib] (10 nM) | 107 |
| CN(c1ccccc1CNc1nc(Nc2ccc3c(c2)CC(=O)N3)ncc1C(F)(F)F)S(C)(=O)=O (100 nM) | 104 |
| Nc1nccc(-c2c(-c3ccc(F)cc3)ncn2C2CCCCC2)n1 (100 nM) | 86.7 |
| Cn1c(=O)c(F)c(Nc2ccc(I)cc2F)c2c(=O)n(C[C@@H](O)CO)cnc21 [TAK-733] (10 nM) | 71.8 |
| CS(=O)(=O)CCNCc1ccc(-c2ccc3ncnc(Nc4ccc(OCc5cccc(F)c5)c(Cl)c4)c3c2)o1 [Lapatinib] (10 nM) | 104 |
| Cc1cc(C(C)Nc2ccccc2)c2nc(N3CCOCC3)cc(=O)n2c1 (stereo not given) [TGX-221] (100 nM) | 98.5 |
| O=c1[nH]c(=O)n([C@H]2C[C@H](O)[C@@H](CO)O2)cc1F [Floxuridine] (100 nM) | 103 |

System: MCF-10A
Assay: as above
Details: incubation time: 72 h
Summary of the method: as §1

| Compound | normalised response [%] |
| --- | --- |
| CC(C)(C)c1cc(NC(=O)Nc2ccc(-c3cn4c(n3)sc3cc(OCCN5CCOCC5)ccc34)cc2)no1 [Quizartinib] (10 nM) | 106 |
| Nc1nccc(-c2c(-c3ccc(F)cc3)ncn2C2CCCCC2)n1 (100 nM) | 110 |
| COC1=C2C[C@@H](C)C[C@H](OC)[C@H](O)[C@@H](C)/C=C(\C)[C@H](OC(N)=O)[C@@H](OC)/C=C\C=C(/C)C(=O)NC(=CC1=O)C2=O [Geldanamycin] (100 nM) | 95.5 |
| Cn1c(=O)c(F)c(Nc2ccc(I)cc2F)c2c(=O)n(C[C@@H](O)CO)cnc21 [TAK-733] (10 nM) | 90.9 |
| CS(=O)(=O)CCNCc1ccc(-c2ccc3ncnc(Nc4ccc(OCc5cccc(F)c5)c(Cl)c4)c3c2)o1 [Lapatinib] (10 nM) | 100 |
| Cc1cc(C(C)Nc2ccccc2)c2nc(N3CCOCC3)cc(=O)n2c1 (stereo not given) [TGX-221] (100 nM) | 108 |
| CCS(=O)(=O)c1cccc(-c2cc(C(=O)NC3CCN(C)CC3)c(C)c3[nH]c4ncc(C)cc4c23)c1 [TAK-901] (10 nM) | 78.2 |
| O=c1[nH]c(=O)n([C@H]2C[C@H](O)[C@@H](CO)O2)cc1F [Floxuridine] (100 nM) | 97.8 |

System: MDA-MB-231
Assay: as above
Details: incubation time: 72 h
Summary of the method: as §1

| Compound | normalised response [%] |
| --- | --- |
| CC(C)(C)c1cc(NC(=O)Nc2ccc(-c3cn4c(n3)sc3cc(OCCN5CCOCC5)ccc34)cc2)no1 [Quizartinib] (10 nM) | 99.1 |
| CN(c1ccccc1CNc1nc(Nc2ccc3c(c2)CC(=O)N3)ncc1C(F)(F)F)S(C)(=O)=O (100 nM) | 85.8 |
| Nc1nccc(-c2c(-c3ccc(F)cc3)ncn2C2CCCCC2)n1 (100 nM) | 112 |
| COC1=C2C[C@@H](C)C[C@H](OC)[C@H](O)[C@@H](C)/C=C(\C)[C@H](OC(N)=O)[C@@H](OC)/C=C\C=C(/C)C(=O)NC(=CC1=O)C2=O [Geldanamycin] (100 nM) | 103 |
| Cn1c(=O)c(F)c(Nc2ccc(I)cc2F)c2c(=O)n(C[C@@H](O)CO)cnc21 [TAK-733] (10 nM) | 99.2 |
| CS(=O)(=O)CCNCc1ccc(-c2ccc3ncnc(Nc4ccc(OCc5cccc(F)c5)c(Cl)c4)c3c2)o1 [Lapatinib] (10 nM) | 76.9 |
| CCS(=O)(=O)c1cccc(-c2cc(C(=O)NC3CCN(C)CC3)c(C)c3[nH]c4ncc(C)cc4c23)c1 [TAK-901] (10 nM) | 100 |
| O=c1[nH]c(=O)n([C@H]2C[C@H](O)[C@@H](CO)O2)cc1F [Floxuridine] (100 nM) | 115 |

System: MDA-MB-436
Assay: as above
Details: incubation time: 72 h
Summary of the method: as §1

| Compound | normalised response [%] |
| --- | --- |
| CC(C)(C)c1cc(NC(=O)Nc2ccc(-c3cn4c(n3)sc3cc(OCCN5CCOCC5)ccc34)cc2)no1 [Quizartinib] (10 nM) | 95.2 |
| CN(c1ccccc1CNc1nc(Nc2ccc3c(c2)CC(=O)N3)ncc1C(F)(F)F)S(C)(=O)=O (100 nM) | 80.3 |
| Nc1nccc(-c2c(-c3ccc(F)cc3)ncn2C2CCCCC2)n1 (100 nM) | 81.8 |
| Cn1c(=O)c(F)c(Nc2ccc(I)cc2F)c2c(=O)n(C[C@@H](O)CO)cnc21 [TAK-733] (10 nM) | 114 |
